{"source": "patent US5510260A", "about": "“Prolactin secreting cell line and method of obtaining the same” (Unversity of Virginia Patent Foundation, priority 1993, dated 1996)", "key": {"MMQ cells [1]": {"tested_on": "MMQ cells", "experiment": "cAMP levels in the MMQ cells", "format": "cell-based, rat", "conditions": "for effect on the dopaminergic inhibition of stimulated cAMP: pertussis toxin as pre-treatment of the cells", "description": "Further studies included measurement of the cAMP levels in the MMQ cells."}, "MMQ cells [2]": {"tested_on": "MMQ cells", "quoted_text": "The non-adherent cell has been designated MMQ.\nThe clonal cell line MMQ, was derived from the non-adherent cells which secrete only prolactin and no detectable amounts of ACTH or any other pituitary hormones."}, "[3]": {"tested_on": "adherent cells of pituitary tumor 7315a", "quoted_text": "This isolation involved the use of the solid tumor which was dispersed with collagenase and cultured in RPMI-1640 containing normal horse and calf serum. As previously mentioned, one population is adherent to plastic-ware and the other is non-adherent."}, "MMQ cells [4]": {"tested_on": "MMQ cells", "experiment": "45Ca2+ uptake/efflux in MMQ (floater) cells", "format": "cell-based, rat", "protocol": "The MMQ cell line was derived from the pituitary tumor 7315a, a cell line that secretes both prolactin and adrenocorticotrophin (ACTH). The MMQ cell line was obtained by cutting a 7315a tumor into small pieces and then dispersing the pieces into a population of single cells by means of incubating tumor pieces with collagenase. These cells were incubated in tissue culture flasks containing RPMI1640, 5% NHS, 5% FCS. […] The floater cells, which we have designated MMQ, were small granular and irregularly shaped in contrast to the cells that adhered to the flasks."}}, "note": "No end group written: not given here."}
{"compound": "O=C(CCCN1CCC(O)(c2ccc(Cl)cc2)CC1)c1ccc(F)cc1", "note": "[Haloperidol]", "values": [{"measurement": "effect on the dopaminergic inhibition of stimulated cAMP", "setting": "MMQ cells [1]", "value": "blocked the dopaminergic effects"}]}
{"compound": "C[C@H](N)C(=O)NCC(=O)N[C@H]1CSSC[C@@H](C(=O)O)NC(=O)[C@H](CO)NC(=O)[C@H]([C@@H](C)O)NC(=O)[C@H](Cc2ccccc2)NC(=O)[C@H]([C@@H](C)O)NC(=O)[C@H](CCCCN)NC(=O)[C@H](Cc2c[nH]c3ccccc23)NC(=O)[C@H](Cc2ccccc2)NC(=O)[C@H](Cc2ccccc2)NC(=O)[C@H](CC(N)=O)NC(=O)[C@H](CCCCN)NC1=O", "note": "[Somatostatin]", "values": [{"measurement": "attenuation of forskolin and VIP-stimulated cAMP generation", "setting": "MMQ cells [1]; SRIF 100 nM", "value": 30, "unit": "%"}]}
{"compound": "NCCc1ccc(O)c(O)c1", "note": "[dopamine]", "values": [{"measurement": "effect of dopamine on prolactin-release after long-term culture", "setting": "MMQ cells [2]; MMQ cells after more than a year in culture", "value": "has not been altered"}, {"measurement": "inhibition of maitotoxin-induced prolactin release", "setting": "MMQ cells [2]; clonal MMQ cells", "value": "50-80%"}, {"measurement": "effect on prolactin release stimulated by maitotoxin", "setting": "MMQ cells [2]; non-adherent cells", "value": "inhibits prolactin release"}, {"measurement": "inhibition at 1 µM", "setting": "MMQ cells [1]; Rattus norvegicus, 1 μM of dopamine, read-out: attenuation of forskolin and VIP-stimulated cAMP generation", "value": 50, "unit": "%"}, {"measurement": "effect on VIP-, forskolin- and choleratoxin-increased cellular cAMP levels", "setting": "MMQ cells [1]; dopamine 50-1000 nM", "value": "inhibited each response in a concentration-dependent manner"}, {"measurement": "effect on prolactin release stimulated by maitotoxin", "setting": "[3]", "value": "not in the adherent ones"}, {"measurement": "effect on maitotoxin-induced efflux of 45Ca2+", "setting": "MMQ cells [4]; addition of dopamine, MMQ cells", "value": "blocked"}]}
{"compound": "C=C[C@@]1(C)CC(=O)[C@]2(O)[C@@]3(C)[C@@H](O)CCC(C)(C)[C@@H]3[C@H](O)[C@H](OC(C)=O)[C@@]2(C)O1", "note": "[forskolin]", "values": [{"measurement": "cellular cAMP levels", "setting": "MMQ cells [1]", "value": "increased"}]}
{"compound": "C=CC[C@H](C)[C@H](C)C[C@@H](O)[C@H](O)[C@@H]1CC[C@@]2(C)O[C@@]3(C)C[C@@]4(C)O[C@H]5/C=C\\C[C@H]6O[C@H]7C[C@H]8O[C@H]9C[C@@]%10(C)O[C@@](C)([C@@H]%11CC[C@H]%12O[C@@]%13(C)C[C@H]%14O[C@@]%15(C)C[C@H]%16O[C@@]%17(C)C[C@@H](O)[C@H]([C@@H]%18O[C@H]%19[C@H](O)[C@@H](O)[C@H](C[C@H](O)C[C@@H](O)[C@@H]%20O[C@H]%21[C@H](O)[C@@H](O)[C@H]([C@@H]%22O[C@@H]%23[C@H](O)[C@H]%24O[C@H]%25C[C@H]%26O[C@@H](C[C@H](O)[C@@H](O)[C@H]%27O[C@H]%28[C@H](O)[C@H]%29O[C@H]%30C[C@H]%31O[C@H]%32[C@@H](O)[C@@H](O)[C@H]([C@H](C)[C@H](O)[C@H](C)CC[C@H](OS(=O)(=O)O)[C@H](O)[C@H](C)C[C@@H](O)C(=C)/C(C)=C/CO)O[C@@H]%32[C@H](O)C[C@]%31(C)O[C@@H]%30C[C@]%29(C)O[C@@H]%28C[C@H]%27O)[C@H](OS(=O)(=O)O)[C@H](O)[C@@H]%26O[C@@H]%25C[C@@H]%24O[C@H]%23[C@H](O)[C@H]%22O)O[C@H]%21C[C@H]%20O)O[C@H]%19C[C@H]%18O)O[C@@H]%17[C@H](O)[C@]%16(C)O[C@@H]%15CC[C@]%14(C)O[C@@H]%13C[C@@H]%12O%11)[C@H](O)C[C@@H]%10O[C@]9(C)CC[C@]8(C)O[C@]7(C)C[C@@H]6O[C@@H]5C[C@@H]4O[C@@H]3C[C@@H]2O1", "note": "[maitotoxin]", "values": [{"measurement": "response of MMQ cells to maitotoxin (45Ca2+)", "setting": "MMQ cells [4]; MMQ floater cells loaded with 45Ca2+", "value": "modest response"}]}
{"compound": "Vasoactive intestinal peptide (HSDAVFTDNYTRLRKQMAVKKYLNSILN; ends and bridges not checked; UniProt P01282 125-152, looked up) [peptide that increases cellular cAMP levels]", "values": [{"measurement": "cellular cAMP levels", "setting": "MMQ cells [1]", "value": "increased"}]}
{"compound": "choleratoxin", "values": [{"measurement": "cellular cAMP levels", "setting": "MMQ cells [1]", "value": "increased"}]}
{"compound": "pertussis toxin", "values": [{"measurement": "effect on the dopaminergic inhibition of stimulated cAMP", "setting": "MMQ cells [1]", "value": "blocked the dopaminergic effects"}]}
